According to patent publication US8263151B2, “Peracid and 2-hydroxy organic acid compositions and methods for treating produce” (Fresh Express, Incorporated, priority 2008, dated 2012):

Columns and labels:
[1] = electron-Volts; cited from earlier work
[2] = test system: E. coli K12; assay: Attached cells challenge test on leaves (Example 1); assay type: cell-based; conditions: PAA 0 ppm
[3] = test system: Listeria innocua; assay: as above; assay type: cell-based; conditions: PAA 0 ppm
[4] = test system: indigenous microorganisms (Aerobic Plate Counts); assay type: cell-based

Question: For `[O][Cl+][O-]` [Chlorine Dioxide], which “Oxidation Capacity” value [1] is on record?
Answer: 1.57 eV

Question: With `CC(O)C(=O)O` (stereo not drawn) [LA, lactic acid] as the compound, how does the “log reduction of attached cells (quantity not given)” value (“log reduction … (quantity not given)” for short) ([2]; Romaine, LA 0.6%) read?
Answer: 0.24

Question: And the “log reduction … (quantity not given)” value ([2]; Romaine, LA 0.9%)?
Answer: 0.37

Question: What about the “log reduction … (quantity not given)” value ([2]; Spinach, LA 0.6%) of the same compound?
Answer: 0.09

Question: What about the “log reduction … (quantity not given)” value ([2]; Spinach, LA 0.9%) of the same compound?
Answer: 0.42

Question: What about the “log reduction … (quantity not given)” value ([2]; Spinach, LA 1.2%) of the same compound?
Answer: 0.81

Question: What about the “log reduction … (quantity not given)” value ([3]; Romaine, LA 0.6%) of the same compound?
Answer: 1.1

Question: And the “log reduction … (quantity not given)” value ([3]; Romaine, LA 0.9%)?
Answer: 1.4

Question: What about the “log reduction … (quantity not given)” value ([3]; Romaine, LA 1.2%) of the same compound?
Answer: 1.5

Question: What about the “log reduction … (quantity not given)” value ([3]; Spinach, LA 0.6%) of the same compound?
Answer: 0.1

Question: And the “log reduction … (quantity not given)” value ([3]; Spinach, LA 0.9%)?
Answer: 0.2

Question: What about the “log reduction … (quantity not given)” value ([3]; Spinach, LA 1.2%) of the same compound?
Answer: 0.2

Question: For `O=[O+][O-]` [Ozone], which “Oxidation Capacity” value [1] is on record?
Answer: 2.07 eV

Question: What does the source list for `CC(=O)OO` [PAA, peroxyacetic acid]?
Answer: Oxidation Capacity [1]: 1.81 eV; Log Reduction of Aerobic Plate Counts vs untreated [4]: 0.7 Log cfu/g
